Data on one molecule can be found in ChEMBL document CHEMBL3856190, “Novel spirothiazamenthane inhibitors of the influenza A M2 proton channel” (Eur J Med Chem, 2016).

The source made the active and inactive calls. No cut-off for these calls is given here.

Data set [1] in a line: Inhibition of Influenza A virus A/udorn/72(H3N2) wild type M2 proton channel expressed in yeast assessed as growth restoration measured after 44 hrs by turbidometric assay. More on the design: species or system Influenza A virus (A/udorn/1972(H3N2)).
Data set [2] is described as follows: Antiviral activity against Influenza A virus A/Puerto Rico/8/34 expressing wild type M2 proton channel infected in MDCK cells assessed as inhibition of viral replication measured after 10 hrs by miniplaque assay. The class given is functional, cell-based, Influenza A virus (A/Puerto Rico/8/1934(H1N1)).
A short description of data set [3]: Antiviral activity against Influenza A virus A/Puerto Rico/8/34 expressing wild type M2 proton channel infected in MDCK cells assessed as inhibition of viral replication at >= 0.8 uM measured after 10 hrs by miniplaque assay. The class given is functional, Influenza A virus (A/Puerto Rico/8/1934(H1N1)).
The next data set concerns MDCK. The experiment in a line: Antiviral activity against amantadine-sensitive Influenza A virus A/Hong Kong/1/68(H3N2) infected in MDCK cells assessed as protection from virus-induced cell death at 1 uM measured after 72 hrs by MTT assay. The class given is functional, cell-based. The settings on record: Influenza A virus (A/Hong Kong/1/1968(H3N2)). In general terms: Tetrazolium dyes change colour on reduction, which living cells bring about.

Data set [4] can be described thus: Cytotoxicity against MDCK cells at 3 uM measured after 72 hrs by MTT assay. The class given is toxicity, cell-based, Canis lupus familiaris. The conditions noted are these: dog.

In the case of `NC12CC3CC(CC(C3)C1)C2` [AMANTADINE], the values for the 50% effective concentration (EC50) in data set [1] and in data set [2] were 100 nM and 40 nM, respectively. In addition, the “inhibition (INH)” value in data set [3] is over 90%. In addition, in the data set on MDCK, the outcome was Active. The Activity entry in data set [4] is “Non-Toxic”.

The EC50 is the concentration that produces a half-maximal response.
